Twelve compounds from patent US20230265116A1, “DEGRADATION OF (EGFR) BY CONJUGATION OF EGFR INHIBITORS WITH E3 LIGASE LIGAND AND METHODS OF USE” (BEIGENE, LTD., priority 2020, published 2023) can be followed below.

Test [1] relates to EGFR Del19/T790M/C797S (H1975-clone #28). Briefly: EGFR degradation HTRF assay, H1975-clone #28 DTC cells. The test is classed as cell-based. The method in brief:
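Lentiviral Del19/T790M/C797S (clone #28) or Del19/C797S (clone #23) EGFR expressed in H1975 with endogenous EGFR knocked out. Cells treated 16 h, 37 °C, 8 doses, 5-fold from 10 uM top, 0.2% DMSO; EGFR read by HTRF after lysis. Degradation % vs DMSO control; DC50, Dmax from four-parameter fit.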
On the technique in general: In TR-FRET formats the signal depends on donor and acceptor labels being close together.

For test [2], the target named is T1, EGFR L858R/T790M/C797S (BaF3-LTC cells) (Homo sapiens, UniProt P00533, C797S/L858R/T790M).
T1 construct: expressed in transfected cells; host or cells: BaF3
Briefly: EGFR degradation HTRF assay, BaF3-LTC cells. It is filed as cell-based. In outline: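 EGFR remaining after a 16 h, 37 °C exposure (8 doses, 5-fold steps from 10 uM final, 0.2% DMSO) was quantified by HTRF antibodies in cell lysate. Percent inhibition relative to DMSO control was fitted by four-parameter logistic to give DC50; Dmax denotes maximal degradation.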

[3] abbreviates: H1975 # 28 DTC cells; EGFR degradation, IC50 (DC50) from curve fit; read-out: DC50(nM) H1975 # 28 DTC.
Where [4] appears, read: H1975 # 28 DTC cells; maximum percentage of inhibition (degradation).
Where [5] appears, read: BaF3-LTC cells; EGFR degradation, IC50 (DC50) from curve fit; read-out: DC50(nM) BaF3-LTC.
Setting [6] is: BaF3-LTC cells; maximum percentage of inhibition (degradation); read-out: Dmax (%) BaF3-LTC.

Like-named read-outs stand apart in the source and are kept apart here.

T1 sequence (P00533 25-1210 T790M/C797S/L858R): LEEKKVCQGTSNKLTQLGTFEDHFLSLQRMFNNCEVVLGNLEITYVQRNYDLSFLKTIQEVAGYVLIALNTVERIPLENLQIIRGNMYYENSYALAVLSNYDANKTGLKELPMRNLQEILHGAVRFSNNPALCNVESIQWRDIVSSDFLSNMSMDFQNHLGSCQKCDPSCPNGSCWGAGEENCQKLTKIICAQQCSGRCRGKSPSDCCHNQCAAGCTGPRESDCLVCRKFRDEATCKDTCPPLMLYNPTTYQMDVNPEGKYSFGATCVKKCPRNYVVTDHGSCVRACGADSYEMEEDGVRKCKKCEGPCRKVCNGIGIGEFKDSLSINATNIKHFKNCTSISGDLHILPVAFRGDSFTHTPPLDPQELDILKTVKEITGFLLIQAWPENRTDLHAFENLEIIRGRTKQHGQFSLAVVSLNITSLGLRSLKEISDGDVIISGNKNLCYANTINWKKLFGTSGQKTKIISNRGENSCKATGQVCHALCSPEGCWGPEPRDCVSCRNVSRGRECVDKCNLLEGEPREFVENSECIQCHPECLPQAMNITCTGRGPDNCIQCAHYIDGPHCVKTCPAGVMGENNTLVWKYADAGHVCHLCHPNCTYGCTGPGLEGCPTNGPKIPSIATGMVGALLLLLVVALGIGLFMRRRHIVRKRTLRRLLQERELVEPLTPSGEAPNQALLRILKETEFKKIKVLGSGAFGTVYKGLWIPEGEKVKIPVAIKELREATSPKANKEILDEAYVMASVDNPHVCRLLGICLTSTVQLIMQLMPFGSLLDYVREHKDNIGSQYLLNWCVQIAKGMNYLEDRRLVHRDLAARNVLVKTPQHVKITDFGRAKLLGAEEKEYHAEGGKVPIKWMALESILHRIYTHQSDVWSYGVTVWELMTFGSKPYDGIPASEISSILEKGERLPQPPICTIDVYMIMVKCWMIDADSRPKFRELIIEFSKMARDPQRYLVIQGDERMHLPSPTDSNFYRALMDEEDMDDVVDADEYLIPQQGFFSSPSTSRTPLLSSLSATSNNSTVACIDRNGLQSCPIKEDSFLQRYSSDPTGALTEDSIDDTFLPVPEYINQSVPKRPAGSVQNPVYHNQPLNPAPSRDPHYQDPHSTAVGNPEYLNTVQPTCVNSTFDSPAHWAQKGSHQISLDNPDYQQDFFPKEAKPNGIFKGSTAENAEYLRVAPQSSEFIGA

By DC50 is commonly meant the concentration giving 50% degradation. One may read the Dmax as the greatest extent of degradation seen. For `CCc1ccc2c(P(C)(C)=O)c(Nc3nc(Nc4cc(CC)c(N5CCC(N6CCN(CCc7cc(F)c([C@H]8CCC(=O)NC8=O)c(F)c7)CC6)CC5)cc4OC4CC4)ncc3Br)ccc2n1` [Example 547, (R)-3-(4-(2-(4-(1-(4-((5-bromo-4-((5-(dimethylphosphoryl)-2-ethylquinolin-6-yl)amino)pyrimidin-2-yl)amino)-5-cyclopropoxy-2-ethylphenyl)piperidin-4-yl)piperazin-1-yl)ethyl)-2,6-difluorophenyl)piperidine-2,6-dione], the half-maximal degradation concentration (DC50) is 0.647 nM in test [1] (setting [3]) and 4.45 nM in test [2] (setting [5]). Also, the “Dmax (%) H1975 # 28 DTC” value in test [1] (setting [4]) was 87.96%. Moreover, in test [2] (setting [6]), the maximal degradation (Dmax) is 89.3%.
On to `CCc1cnc2c(P(C)(C)=O)c(Nc3nc(Nc4cc(CC)c(N5CCC(N6CCN(CCc7ccc8c(c7)oc(=O)n8C7CCC(=O)NC7=O)CC6)CC5)cc4OC)ncc3Br)ccc2n1` (centres unmarked) [Example 548, 3-(6-(2-(4-(1-(4-((5-bromo-4-((5-(dimethylphosphoryl)-2-ethylquinoxalin-6-yl)amino)pyrimidin-2-yl)amino)-2-ethyl-5-methoxyphenyl)piperidin-4-yl)piperazin-1-yl)ethyl)-2-oxobenzo[d]oxazol-3(2H)-yl)piperidine-2,6-dione], for which the “Dmax (%) H1975 # 28 DTC” value in test [1] (setting [4]) came to 74.38%. Besides, the 50% degradation concentration (DC50) turned out to be 0.696 nM in test [1] (read-out: DC50(nM) H1975 # 28 DTC; H1975 # 28 DTC cells; EGFR degradation, IC50 (DC50) from curve fit) and 3.63 nM in test [2] (read-out: DC50(nM) BaF3-LTC; BaF3-LTC cells; EGFR degradation, IC50 (DC50) from curve fit). Also, the Dmax in test [2] (read-out: Dmax (%) BaF3-LTC, BaF3-LTC cells; maximum percentage of inhibition (degradation)) was 91.8%.
`CCc1ccc2c(P(C)(C)=O)c(Nc3nc(Nc4cc(C5CC5)c(N5CCC(N6CCN(CCc7cc(F)c([C@H]8CCC(=O)NC8=O)c(F)c7)CC6)CC5)cc4OC)ncc3Br)ccc2n1` [Example 550, (R)-3-(4-(2-(4-(1-(4-((5-bromo-4-((5-(dimethylphosphoryl)-2-ethylquinolin-6-yl)amino)pyrimidin-2-yl)amino)-2-cyclopropyl-5-methoxyphenyl)piperidin-4-yl)piperazin-1-yl)ethyl)-2,6-difluorophenyl)piperidine-2,6-dione]: the DC50 in test [1] (setting [3]) turned out to be 0.707 nM; in test [2] (setting [5]), 8.12 nM. Further, the “Dmax (%) H1975 # 28 DTC” value in test [1] (setting [4]) came to 87.71%. Further, in test [2] (setting [6]), the Dmax was determined as 85.9%.
The like results for `CCOc1cc(N2CCC(N3CCN(CCc4ccc5c(c4)oc(=O)n5C4CCC(=O)NC4=O)CC3)CC2)c(C)cc1Nc1ncc(Br)c(Nc2ccc3nc(CC)ccc3c2P(C)(C)=O)n1` (centres unmarked) [Example 552, 3-(6-(2-(4-(1-(4-((5-bromo-4-((5-(dimethylphosphoryl)-2-ethylquinolin-6-yl)amino)pyrimidin-2-yl)amino)-5-ethoxy-2-methylphenyl)piperidin-4-yl)piperazin-1-yl)ethyl)-2-oxobenzo[d]oxazol-3 (2H)-yl)piperidine-2,6-dione] were, in that order, 0.367 nM, 4.35 nM, 71.85% and 85.7%.
Turning to `CCOc1cc(N2CCC(N3CCN(CCc4cc5oc(=O)n(C6CCC(=O)NC6=O)c5cc4C)CC3)CC2)c(CC)cc1Nc1ncc(Br)c(Nc2ccc3c(=O)n(CC)ncc3c2P(C)(C)=O)n1` (centres unmarked) [Example 554, 3-(6-(2-(4-(1-(4-((5-bromo-4-((5-(dimethylphosphoryl)-2-ethyl-1-oxo-1,2-dihydrophthalazin-6-yl)amino)pyrimidin-2-yl)amino)-5-ethoxy-2-ethylphenyl)piperidin-4-yl)piperazin-1-yl)ethyl)-5-methyl-2-oxobenzo[d]oxazol-3(2H)-yl)piperidine-2,6-dione], the DC50 in test [1] (setting [3]) was determined as 0.662 nM; in test [2] (setting [5]), 2.49 nM. For the same compound, in test [1] (setting [4]), the “Dmax (%) H1975 # 28 DTC” value is given as 67.4%. Further, the greatest degradation seen (Dmax) in test [2] (setting [6]) came out at 91.9%.
Consider `CCOc1cc(N2CCC(N3CCN(CCc4ccc5c(oc(=O)n5C5CCC(=O)NC5=O)c4F)CC3)CC2)c(CC)cc1Nc1ncc(Br)c(Nc2ccc3nc(CC)ccc3c2P(C)(C)=O)n1` (centres unmarked) [Example 555, 3-(6-(2-(4-(1-(4-((5-bromo-4-((5-(dimethylphosphoryl)-2-ethylquinolin-6-yl)amino)pyrimidin-2-yl)amino)-5-ethoxy-2-ethylphenyl)piperidin-4-yl)piperazin-1-yl)ethyl)-7-fluoro-2-oxobenzo[d]oxazol-3(2H)-yl)piperidine-2,6-dione], for which the 50% degradation concentration (DC50) was found to be 1.89 nM in test [1] (setting [3]) and 7.36 nM in test [2] (setting [5]). In addition, in test [1] (setting [4]), the “Dmax (%) H1975 # 28 DTC” value is 77.45%. In addition, the Dmax in test [2] (setting [6]) was 94.5%.
The like results for `CCOc1cc(N2CCC(N3CCN(CCC4CCN(c5cc(F)cc6c5oc(=O)n6C5CCC(=O)NC5=O)CC4)CC3)CC2)c(CC)cc1Nc1ncc(Br)c(Nc2ccc3nc(CC)ccc3c2P(C)(C)=O)n1` (centres unmarked) [Example 556, 3-(7-(4-(2-(4-(1-(4-((5-bromo-4-((5-(dimethylphosphoryl)-2-ethylquinolin-6-yl)amino)pyrimidin-2-yl)amino)-5-ethoxy-2-ethylphenyl)piperidin-4-yl)piperazin-1-yl)ethyl)piperidin-1-yl)-5-fluoro-2-oxobenzo[d]oxazol-3(2H)-yl)piperidine-2,6-dione] were, in that order, 4.03 nM, 14.8 nM, 98.64% and 92.2%.
The like results for `CCc1cc(Nc2ncc(Br)c(Nc3ccc4nc(C)ccc4c3P(C)(C)=O)n2)c(OC2CC2)cc1N1CCC(N2CCN(CCc3ccc4c(c3)oc(=O)n4C3CCC(=O)NC3=O)CC2)CC1` (centres unmarked) [Example 557, 3-(6-(2-(4-(1-(4-((5-bromo-4-((5-(dimethylphosphoryl)-2-methylquinolin-6-yl)amino)pyrimidin-2-yl)amino)-5-cyclopropoxy-2-ethylphenyl)piperidin-4-yl)piperazin-1-yl)ethyl)-2-oxobenzo[d]oxazol-3(2H)-yl)piperidine-2,6-dione] were, in that order, 0.773 nM, 6.8 nM, 92.3% and 89.1%.
On to `CCOc1cc(N2CCC(N3CCN(CCc4c(F)ccc5c4n(CC)c(=O)n5C4CCC(=O)NC4=O)CC3)CC2)c(CC)cc1Nc1ncc(Br)c(Nc2ccc3nc(CC)ccc3c2P(C)(C)=O)n1` (centres unmarked) [Example 558, 3-(4-(2-(4-(1-(4-((5-bromo-4-((5-(dimethylphosphoryl)-2-ethylquinolin-6-yl)amino)pyrimidin-2-yl)amino)-5-ethoxy-2-ethylphenyl)piperidin-4-yl)piperazin-1-yl)ethyl)-3-ethyl-5-fluoro-2-oxo-2,3-dihydro-1H-benzo[d]imidazol-1-yl)piperidine-2,6-dione], for which the 50% degradation concentration (DC50) in test [1] (setting [3]) amounted to 2.59 nM; in test [2] (setting [5]), 13.1 nM. Besides, the “Dmax (%) H1975 # 28 DTC” value in test [1] (setting [4]) was 85.18%.
Consider `CCOc1cc(N2CCC(N3CCN(C[C@H]4CCN(c5cccc6c5oc(=O)n6C5CCC(=O)NC5=O)C4)CC3)CC2)c(CC)cc1Nc1ncc(Br)c(Nc2ccc3c(=O)n(CC)ncc3c2P(C)(C)=O)n1` (stereo partly drawn) [Example 560, 3-(7-((R)-3-((4-(1-(4-((5-bromo-4-((5-(dimethylphosphoryl)-2-ethyl-1-oxo-1,2-dihydrophthalazin-6-yl)amino)pyrimidin-2-yl)amino)-5-ethoxy-2-ethylphenyl)piperidin-4-yl)piperazin-1-yl)methyl)pyrrolidin-1-yl)-2-oxobenzo[d]oxazol-3(2H)-yl)piperidine-2,6-dione], for which the half-maximal degradation concentration (DC50) in test [1] (setting [3]) was 1.36 nM; in test [2] (setting [5]), 14.1 nM. For the same compound, the “Dmax (%) H1975 # 28 DTC” value in test [1] (setting [4]) is recorded as 80.68%. In test [2] (setting [6]), the Dmax was determined as 92.3%.
The like results for `CCOc1cc(N2CCC(N3CCN(C[C@H]4CCN(c5cccc6c5oc(=O)n6C5CCC(=O)NC5=O)C4)CC3)CC2)c(CC)cc1Nc1ncc(Br)c(Nc2ccc3nc(CC)ccc3c2P(C)(C)=O)n1` (stereo partly drawn) [Example 561, 3-(7-((R)-3-((4-(1-(4-((5-bromo-4-((5-(dimethylphosphoryl)-2-ethylquinolin-6-yl)amino)pyrimidin-2-yl)amino)-5-ethoxy-2-ethylphenyl)piperidin-4-yl)piperazin-1-yl)methyl)pyrrolidin-1-yl)-2-oxobenzo[d]oxazol-3(2H)-yl)piperidine-2,6-dione] were, in that order, 1.68 nM, 10.3 nM, 77.5% and 89.5%.
Consider `CCOc1cc(N2CCC(N3CCN(CC4CN(c5cccc6c5oc(=O)n6C5CCC(=O)NC5=O)C4)CC3)CC2)c(CC)cc1Nc1ncc(Br)c(Nc2cc(F)c3nc(CC)ccc3c2P(C)(C)=O)n1` (centres unmarked) [Example 562, 3-(7-(3-((4-(1-(4-((5-bromo-4-((5-(dimethylphosphoryl)-2-ethyl-8-fluoroquinolin-6-yl)amino)pyrimidin-2-yl)amino)-5-ethoxy-2-ethylphenyl)piperidin-4-yl)piperazin-1-yl)methyl)azetidin-1-yl)-2-oxobenzo[d]oxazol-3(2H)-yl)piperidine-2,6-dione], for which the results for the DC50 in test [1] (setting [3]) and in test [2] (setting [5]) were 1.54 nM and 7.47 nM, respectively. Further, the “Dmax (%) H1975 # 28 DTC” value in test [1] (setting [4]) is 77.73%. The maximal degradation (Dmax) in test [2] (setting [6]) turned out to be 90.2%.
